Results from patent US7138361B2, “Herbicidal heterocycles” (E. I. du Pont de Nemours and Company, priority 2000, dated 2006).

Assays:
Assay in all cases: Test C preemergence
Format in all cases: in vivo
[1] = system: Sunflower; conditions: Rate 250 g/ha, scale 0 to 100, 0 no effect, 100 complete control
[2] = system: Nightshade
[3] = system: woolly cupgrass (Eriochloa villosa); conditions: for Plant response rating (0 to 100), Cupgrass, Woolly: Rate 500 g/ha, visual evaluation after 12 to 14 days
Summary of the method: (§1)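 Compounds in non-phytotoxic solvent with surfactant applied preemergence to planted seeds and postemergence to plants at 1- to 4-leaf stage (2–18 cm). Kept in greenhouse 12–14 days, then visually rated against controls on a 0 (no effect) to 100 (complete control) scale.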

[4] = system: goosegrass (Eleusine indica); conditions: for Plant response rating (0 to 100), Goosegrass: Rate 500 g/ha, visual evaluation after 12 to 14 days
Summary of the method: as §1

[5] = system: Surinam grass (Brachiaria decumbens); conditions: for Plant response rating (0 to 100), Surinam grass: Rate 500 g/ha, visual evaluation after 12 to 14 days
Summary of the method: as §1

[6] = system: lambsquarters (Chenopodium album); conditions: for Plant response rating (0 to 100), Lambsquarters: Rate 500 g/ha, visual evaluation after 12 to 14 days
Summary of the method: as §1

[7] = system: corn (Zea mays); conditions: for Plant response rating (0 to 100), Corn: Rate 500 g/ha, visual evaluation after 12 to 14 days
Summary of the method: as §1

[8] = system: soybean (Glycine max)
Summary of the method: as §1

[9] = system: johnsongrass (Sorghum halepense); conditions: for Plant response rating (0 to 100), Johnsongrass: Rate 500 g/ha, visual evaluation after 12 to 14 days
Summary of the method: as §1

[10] = system: velvetleaf (Abutilon theophrasti); conditions: for Plant response rating (0 to 100), Velvetleaf: Rate 500 g/ha, visual evaluation after 12 to 14 days
Summary of the method: as §1

[11] = system: yellow nutsedge (Cyperus esculentus); conditions: for Plant response rating (0 to 100), Nutsedge: Rate 500 g/ha, visual evaluation after 12 to 14 days
Summary of the method: as §1

[12] = system: cocklebur (Xanthium strumarium); conditions: for Plant response rating (0 to 100), Cocklebur: Rate 500 g/ha, visual evaluation after 12 to 14 days
Summary of the method: as §1

[13] = system: Sunflower; conditions: Rate 125 g/ha; scale 0 to 100, 0 no effect, 100 complete control
[14] = system: kochia (Kochia scoparia); conditions: for Plant response rating (0 to 100), Kochia: Rate 500 g/ha, visual evaluation after 12 to 14 days
Summary of the method: as §1

[15] = system: giant foxtail (Setaria faberii); conditions: for Plant response rating (0 to 100), Foxtail, Giant: Rate 500 g/ha, visual evaluation after 12 to 14 days
Summary of the method: as §1

[16] = system: common ragweed (Ambrosia elatior); conditions: for Plant response rating (0 to 100), Ragweed, Common: Rate 500 g/ha, visual evaluation after 12 to 14 days
Summary of the method: as §1

[17] = system: pigweed (Amaranthus retroflexus); conditions: for Plant response rating (0 to 100), Pigweed: Rate 500 g/ha, visual evaluation after 12 to 14 days
Summary of the method: as §1

[18] = system: morningglory (Ipomoea hederacea); conditions: for Plant response rating (0 to 100), Morningglory: Rate 500 g/ha, visual evaluation after 12 to 14 days
Summary of the method: as §1

[19] = system: bermudagrass (Cynodon dactylon); conditions: for Plant response rating (0 to 100 where 0 is no effect and 100 is complete control), Bermudagrass: Rate 500 g/ha, visual evaluation after 12 to 14 days
Summary of the method: as §1

[20] = system: crabgrass (Digitaria sanguinalis); conditions: for Plant response rating (0 to 100), Crabgrass: Rate 500 g/ha, visual evaluation after 12 to 14 days
Summary of the method: as §1

[21] = Rate 125 g/ha, scale 0 to 100, 0 no effect, 100 complete control
[22] = Rate 250 g/ha, scale 0 to 100, 0 no effect, 100 complete control
[23] = preemergence, Rate 62 g/ha, scale 0 to 100
[24] = preemergence, Rate 250 g/ha, scale 0 to 100, 0 no effect, 100 complete control

CCOc1cccc(N2CCC(n3ccc(C(C)C)n3)C2=O)c1 (stereo not shown) [Compound 128]
50: Plant response rating (0 to 100), Velvetleaf ([10]; preemergence)
70: Plant response rating, Nutsedge [11, 21] | Plant response rating (0 to 100), Cocklebur ([12]; preemergence) | Plant response rating, Pigweed [17, 21] | Plant response rating, Pigweed [17, 23] | Plant response rating, Morningglory [18, 24]
60: Plant response rating (0 to 100), Corn ([7]; preemergence) | Plant response rating, Soybean [8, 24] | Plant response rating, Johnsongrass [9, 23] | Plant response rating, Morningglory [18, 21]
30: Plant response rating, Velvetleaf [10, 24] | Plant response rating, Morningglory [18, 23]
10: Plant response rating, Velvetleaf [10, 23] | Plant response rating, Cocklebur [12, 21]
80: Plant response rating, Pigweed [17, 24] | Plant response rating (0 to 100), Morningglory ([18]; preemergence)
20: Plant response rating, Nightshade ([2]; Rate 62 g/ha, scale 0 to 100) | Plant response rating, Corn [7, 21] | Plant response rating, Velvetleaf [10, 21] | Plant response rating, Nutsedge [11, 23] | Plant response rating, Foxtail, Giant [15, 23]
100: Plant response rating, Sunflower [1] | Plant response rating, Cupgrass, Woolly [3, 21] | Plant response rating, Cupgrass, Woolly [3, 23] | Plant response rating (0 to 100), Cupgrass, Woolly ([3]; preemergence) | Plant response rating, Cupgrass, Woolly [3, 24] | Plant response rating, Goosegrass [4, 21] | Plant response rating, Goosegrass [4, 23] | Plant response rating (0 to 100), Goosegrass ([4]; preemergence) | Plant response rating, Goosegrass [4, 24] | Plant response rating, Surinam grass [5, 21] | Plant response rating (0 to 100), Surinam grass ([5]; preemergence) | Plant response rating, Surinam grass [5, 24] | Plant response rating, Lambsquarters [6, 21] | Plant response rating, Lambsquarters [6, 23] | Plant response rating (0 to 100), Lambsquarters ([6]; preemergence) | Plant response rating, Lambsquarters [6, 24] | Plant response rating (0 to 100), Johnsongrass ([9]; preemergence) | Plant response rating, Johnsongrass [9, 24] | Plant response rating (0 to 100), Nutsedge ([11]; preemergence) | Plant response rating, Nutsedge [11, 24] | Plant response rating, Sunflower [13] | Plant response rating, Kochia [14, 21] | Plant response rating, Kochia [14, 23] | Plant response rating (0 to 100), Kochia ([14]; preemergence) | Plant response rating, Kochia [14, 24] | Plant response rating (0 to 100), Foxtail, Giant ([15]; preemergence) | Plant response rating, Ragweed, Common [16, 21] | Plant response rating, Ragweed, Common [16, 23] | Plant response rating (0 to 100), Ragweed, Common ([16]; preemergence) | Plant response rating, Ragweed, Common [16, 24] | Plant response rating (0 to 100), Pigweed ([17]; preemergence) | Plant response rating, Bermudagrass [19, 21] | Plant response rating, Bermudagrass [19, 23] | Plant response rating (0 to 100 where 0 is no effect and 100 is complete control), Bermudagrass ([19]; preemergence) | Plant response rating, Bermudagrass [19, 24] | Plant response rating, Crabgrass [20, 21] | Plant response rating, Crabgrass [20, 23] | Plant response rating (0 to 100), Crabgrass ([20]; preemergence) | Plant response rating, Crabgrass [20, 24]
90: Plant response rating, Nightshade [2, 22] | Plant response rating, Surinam grass [5, 23] | Plant response rating, Johnsongrass [9, 21] | Plant response rating, Foxtail, Giant [15, 21] | Plant response rating, Foxtail, Giant [15, 24]
40: Plant response rating, Nightshade [2, 21] | Plant response rating, Corn [7, 24] | Plant response rating, Cocklebur [12, 24]
0: Plant response rating, Corn [7, 23] | Plant response rating, Cocklebur [12, 23]

CCCC(C)c1ccn(C2CCN(c3cccc(OCC)c3)C2=O)n1 (stereo not shown) [Compound 129]
20: Plant response rating, Corn [7, 21] | Plant response rating, Soybean [8, 21] | Plant response rating (0 to 100), Soybean ([8]; preemergence, Rate 500 g/ha, visual evaluation after 12 to 14 days) | Plant response rating, Soybean [8, 24] | Plant response rating, Johnsongrass [9, 23] | Plant response rating, Foxtail, Giant [15, 23] | Plant response rating, Pigweed [17, 23]
70: Plant response rating, Johnsongrass [9, 21]
50: Plant response rating, Nutsedge [11, 24]
30: Plant response rating (0 to 100), Corn ([7]; preemergence) | Plant response rating, Corn [7, 24]
80: Plant response rating, Surinam grass [5, 21] | Plant response rating, Surinam grass [5, 23] | Plant response rating, Foxtail, Giant [15, 24]
90: Plant response rating, Cupgrass, Woolly [3, 23] | Plant response rating, Surinam grass [5, 24] | Plant response rating (0 to 100), Nutsedge ([11]; preemergence)
0: Plant response rating, Nightshade ([2]; Rate 62 g/ha, scale 0 to 100) | Plant response rating, Nightshade [2, 21] | Plant response rating, Corn [7, 23] | Plant response rating, Velvetleaf [10, 21] | Plant response rating, Velvetleaf [10, 23] | Plant response rating, Velvetleaf [10, 24] | Plant response rating, Nutsedge [11, 21] | Plant response rating, Nutsedge [11, 23] | Plant response rating, Cocklebur [12, 21] | Plant response rating, Cocklebur [12, 23] | Plant response rating (0 to 100), Cocklebur ([12]; preemergence) | Plant response rating, Cocklebur [12, 24] | Plant response rating, Sunflower [13] | Plant response rating, Kochia [14, 23] | Plant response rating, Ragweed, Common [16, 21] | Plant response rating, Ragweed, Common [16, 23] | Plant response rating, Morningglory [18, 21] | Plant response rating, Morningglory [18, 23] | Plant response rating (0 to 100), Morningglory ([18]; preemergence)
100: Plant response rating, Cupgrass, Woolly [3, 21] | Plant response rating (0 to 100), Cupgrass, Woolly ([3]; preemergence) | Plant response rating, Cupgrass, Woolly [3, 24] | Plant response rating, Goosegrass [4, 21] | Plant response rating, Goosegrass [4, 23] | Plant response rating (0 to 100), Goosegrass ([4]; preemergence) | Plant response rating, Goosegrass [4, 24] | Plant response rating (0 to 100), Surinam grass ([5]; preemergence) | Plant response rating, Lambsquarters [6, 21] | Plant response rating, Lambsquarters [6, 23] | Plant response rating (0 to 100), Lambsquarters ([6]; preemergence) | Plant response rating, Lambsquarters [6, 24] | Plant response rating (0 to 100), Johnsongrass ([9]; preemergence) | Plant response rating, Johnsongrass [9, 24] | Plant response rating, Kochia [14, 21] | Plant response rating (0 to 100), Kochia ([14]; preemergence) | Plant response rating, Kochia [14, 24] | Plant response rating (0 to 100), Foxtail, Giant ([15]; preemergence) | Plant response rating (0 to 100), Ragweed, Common ([16]; preemergence) | Plant response rating, Ragweed, Common [16, 24] | Plant response rating, Pigweed [17, 21] | Plant response rating (0 to 100), Pigweed ([17]; preemergence) | Plant response rating, Bermudagrass [19, 21] | Plant response rating, Bermudagrass [19, 23] | Plant response rating (0 to 100 where 0 is no effect and 100 is complete control), Bermudagrass ([19]; preemergence) | Plant response rating, Bermudagrass [19, 24] | Plant response rating, Crabgrass [20, 21] | Plant response rating, Crabgrass [20, 23] | Plant response rating (0 to 100), Crabgrass ([20]; preemergence) | Plant response rating, Crabgrass [20, 24]
10: Plant response rating, Sunflower [1] | Plant response rating, Nightshade [2, 22] | Plant response rating, Soybean [8, 23] | Plant response rating (0 to 100), Velvetleaf ([10]; preemergence)
60: Plant response rating, Foxtail, Giant [15, 21] | Plant response rating, Pigweed [17, 24]
